Consider eleven molecules from patent US9352004B2, “Muscle-derived cells (MDCs) for treating muscle- or bone-related injury or dysfunction” (University of Pittsburgh—Of the Commonwealth System of …, priority 1998, dated 2016).

One data set relates to bladder. The settings on record: rat, in vivo. On the procedure: Micturition Pattern Measurement: Urination pattern profiles were obtained using a specialized metabolic cage which deflects voided urine for collection and quantification over a 24 hour period. Micturition parameters evaluated in the described experiments included total urine output/24 hours, number of micturitions/24 hours and mean volume per micturition (M. D. Chancellor et al., 1994, J. Urol., 151:250-254; T. Watanabe et al., 1996, J. Urol., 156:1507-1510).
To first assess the role of intravesicle NO on cyclophosphamide-induced cystitis, female S.D. rats received a single intraperitoneal injection of CYP (100 mg/kg) or vehicle. Voiding parameters (mean voided volume and number of voids) were then monitored for 24 hours in a metabolic cage. Forty-eight hours after CYP injection, bladder function was studied using continuous saline infusion (0.04 ml/min) cystometry via PE-50 transurethral catheter under urethane anesthesia.

In a further data set the test system is bladder wall. It is filed as in vivo, rat. To be noted: 100 μM TBH4, control areas of the bladder.
The next data set has as its system myoblasts. The experiment in a line: Effect of growth factors on myoblast proliferation and fusion in vitro. It is filed as cell-based. To be noted: 1, 10 and 100 ng/ml, 48 and 96 hours. The procedure: Several growth factors, including acidic and basic fibroblast growth factors (aFGF and bFGF); epidermal growth factor (EGF); insulin-like growth factor-1 (IGF-1); platelet derived growth factor (PDGF); transforming growth factor β or α (TGF-β or TGF-α); and nerve growth factor (NGF) have been investigated for their ability to enhance the myogenic activity of muscle cells in vitro. Myoblasts were cultured with these trophic factors at different concentrations (1, 10 and 100 ng/ml), and the myoblast proliferation and differentiation were monitored at 48 and 96 hours post-incubation.

Data set [1] relates to meniscal fibrochondrocytes. The experiment in a line: Growth factors on meniscal fibrochondrocytes in vitro. It counts as cell-based. The settings on record: for expression of collagen and non-collagen proteins: meniscal fibrochondrocytes. From the text: In vitro data detail the effects of numerous growth factors on fibroblast proliferation and collagen production.
A further data set concerns injured muscle. Nature of the data set: Muscle healing and twitch/tetanic strength in vivo after muscle contusion, laceration or strain. Further details: species or system mouse; key to twitch strength / tetanic strength: (+) improvement in strength vs. non-injected muscles; (−) no improvement in strength vs. non-injected muscles. The settings on record: for number of regenerating myofibers in vivo: direct injection into injured muscle (laceration, contusion, strain). On the procedure: Briefly, the muscle laceration was performed by cutting the gastrocnemius muscle of a mouse with scissors at 60% of its length from its distal insertion, 75% of its width, and 50% of its thickness. The muscle contusion was made by dropping a 16 gram ball through an impactor from a height of 100 centimeters onto the mouse's gastrocnemius muscle, and the muscle strain was performed by elongating the muscle-tendon unit to a pre-determined strain point at the rate of 1 cm/min.
In order to evaluate muscle healing following injury, histological staining (hematoxylin-eosin) in conjunction with immunohistochemical techniques were employed to assess the expression of desmin and vimentin. Since desmin is a cytoskeletal protein uniformly expressed in regenerating myofibers, it has been used to specifically locate regenerating myofibers. Vimentin is expressed in mononucleated fibrocytes and macrophages and has been used herein as a marker for fibrosis. […]

The subject of the next data set is urethral smooth muscle. The experiment in a line: Intraurethral NO donors: urethral perfusion pressure and isovolumetric bladder pressure. To be noted: rat, in vivo, iv. On the procedure:
To first assess the role of NO donors on smooth muscle, urethral perfusion pressure and isovolumetric bladder pressure were measured with catheters inserted through the bladder dome in urethane anesthetized female S.D. rats (250-300 grams), (n=9). The catheter assembly was wedged in the bladder neck to block passage of fluid between the bladder and urethra without affecting the nerve supply to the organs. The external urethra was not catheterized. Responses were examined in the control state at an urethral saline infusion speed of 0.075 ml/min. After blocking striated urethral sphincter with intravenous alpha-bungarotoxin administration (100 mcg/kg), intraurethral drugs were administered.

“Also recorded” adds a separate entry of the source. Marks after values point to notes of the source that are not given here. Some results are limits rather than exact numbers.

Protocol for bladder wall: For gene therapy experiments, myoblasts were transduced with the adenovirus containing the human inducible nitric oxide synthase (iNOS) gene at a multiplicity of infection of 50 (MOI=50) and were injected into the bladder and studied after 2 to 7 days.
The bladder was injected with a similar solution; however, the cell concentration ranged from 1.33×10^5 to 1×10^6 cells per 10 μl injection. Transduced myoblasts were prepared by incubating them for 24 hours with adenovirus vector containing the iNOS gene at a multiplicity of infection of 50 virus particles per cell. Immunohistochemical staining was performed on the cultured cells to ensure adequate infection and iNOS protein production.
NO release in the bladder and penis was measured by placing the tip of a Naflon-coated porphyrinic microsensor (dia. 10 μM; detection limit, 5 nM; response time, 1 ms) directly on the bladder surface (mucosal and serosal) and on the corporal cavernosum, respectively.

Take `O=P1(N(CCCl)CCCl)NCCCO1` (stereo not shown) [CYP, cyclophosphamide]: in the data set with bladder, the “number of micturitions during the 24 hours after CYP injection” value is on record as 117±86, the total micturition volume came out at 20.5 ± 9.2 mL and the “voiding frequency after 7 days” value was determined as 38±4.

`C[C@H](O)[C@H](O)[C@H]1CNc2nc(N)[nH]c(=O)c2N1` [TBH4, tetrahydrobiopterin]: in the data set with bladder wall, the “duration of NO release spike” value was below 5 s and the “spike in NO release” value lay in the range of 1 to 5 nM.

In the case of EGF: epidermal growth factor, in the data set with myoblasts, the “Fusion (differentiation into myotubules)” value is “Inhibit” and the Proliferation entry is given as “Inhibit”. Further, in data set [1], the “proliferation of the meniscal fibrochondrocytes” value is on record as “improve”; the “expression of collagen and non-collagen proteins” value was “improve”.

For IGF: insulin-like growth factor-1, the “Fusion (differentiation into myotubules)” value in the data set with myoblasts is given as “Stimulate”; with myoblasts (listed as IGF-1), “increase myoblast differentiation into myotubules”. In addition, the Proliferation entry in the data set with myoblasts is recorded as “Stimulate”; with myoblasts (listed as IGF-1) it was “significantly enhanced”. Moreover, the tetanic strength entry in the data set with injured muscle (Muscle contusion), with injured muscle (Muscle laceration) and in the data set on injured muscle (Muscle strain) was “+/+” in each case. Further, the twitch strength result in the data set on injured muscle (Muscle contusion), with injured muscle (Muscle laceration) and with injured muscle (Muscle strain) was “+/+” in each case. Besides, the “number of regenerating myofibers in vivo” value in the data set with injured muscle is listed as “increase the number of regenerating myofibers”.

In the case of NGF: nerve growth factor, the “Fusion (differentiation into myotubules)” value in the data set with myoblasts is “increase myoblast differentiation into myotubules; also recorded: Stimulate”. Further, the Proliferation result in the data set with myoblasts is listed as “significantly enhanced; also recorded: Stimulate”. Moreover, the tetanic strength entry with injured muscle (Muscle contusion) was “+/+*”; in the data set on injured muscle (Muscle laceration), “−/−”; in the data set with injured muscle (Muscle strain), “−”. Moreover, the twitch strength entry is “+/+*” in the data set with injured muscle (Muscle contusion), “−/−” in the data set with injured muscle (Muscle laceration) and “+” in the data set with injured muscle (Muscle strain). Moreover, the “number of regenerating myofibers in vivo” value with injured muscle is recorded as “increase the number of regenerating myofibers”.

PDGF: in the data set on myoblasts, the “Fusion (differentiation into myotubules)” value was “Inhibit” and the Proliferation result was “Inhibit”. Besides, in data set [1], the “proliferation of the meniscal fibrochondrocytes” value is listed as “improve”; the “expression of collagen and non-collagen proteins” value is listed as “improve”.

With TGF-α: transforming growth factor α, in the data set with myoblasts, the “Fusion (differentiation into myotubules)” value is on record as “Inhibit” and the Proliferation result is on record as “Inhibit”. Besides, in data set [1], the “proliferation of the meniscal fibrochondrocytes” value is listed as “improve”; the “expression of collagen and non-collagen proteins” value is reported as “improve”.

For TGF-β, in the data set on myoblasts, the “Fusion (differentiation into myotubules)” value is given as “Inhibit” and the Proliferation entry is “Inhibit”.

As for a-FGF: acidic fibroblast growth factor, the “Fusion (differentiation into myotubules)” value in the data set on myoblasts was “Stimulate”; in the data set on myoblasts (listed as aFGF), “increase myoblast differentiation into myotubules”. The Proliferation result with myoblasts is on record as “Inhibit”.

As to alpha-bungarotoxin, in the data set on urethral smooth muscle, the “high frequency oscillations of urethral pressure” value is reported as “abolished”.

With b-FGF: basic fibroblast growth factor, the figures for the “Fusion (differentiation into myotubules)” value with myoblasts and with myoblasts (listed as bFGF) were “Stimulate” and “increase myoblast differentiation into myotubules”, respectively. For the same molecule, in the data set on myoblasts, the Proliferation result is given as “significantly enhanced; also recorded: Stimulate”. Moreover, the tetanic strength entry with injured muscle (Muscle contusion), in the data set with injured muscle (Muscle laceration) and in the data set with injured muscle (Muscle strain) was “+/+” in each case. For the same molecule, the twitch strength result with injured muscle (Muscle contusion), in the data set on injured muscle (Muscle laceration) and in the data set with injured muscle (Muscle strain) was “+/+” in each case. The “number of regenerating myofibers in vivo” value in the data set with injured muscle is recorded as “increase the number of regenerating myofibers”. The “proliferation of the meniscal fibrochondrocytes” value in data set [1] is recorded as “improve”. Moreover, in data set [1], the “expression of collagen and non-collagen proteins” value is “improve”.
